In US20090270255A1 (priority 2005, published 2009):
Where two headings read alike, the source gives them in different places.

System: Pyricularia oryzae
Type: cell-based
[1] = single active compound, conc. 1 ppm, MTP measured at 405 nm on day 7 after inoculation, 18° C.

Row | Compound | Observed effect (%) [1] [%] | Observed effect (%) (single active compound, conc. 4 ppm, MTP measured at 405 nm on day 7 after inoculation, 18° C.) | Observed effect (%)
1 | CC1(C)CC/C(=C\c2ccc(Cl)cc2)C1(O)Cn1cncn1 (stereo not shown) [Triticonazole, triticonazole] | 3 | 13 | 
2 | bromuconazole |  |  | 0
3 | Fc1ccc(C2(Cn3cncn3)OC2c2ccccc2Cl)cc1 (stereo not shown) [Epoxiconazole, epoxiconazole] | 0 |  | 
